Earlier results, collected in patent US10543174B2, “Modified release tablet composition comprising mirabegron” (SYNTHON B.V., priority 2016, dated 2020).

Columns and labels:
[1] = presence of food in the GI tract

bioavailability, food effect [1]: affected by the presence of food
solubility (BCS): high solubility
solubility in water (between neutral to acidic pH, EMA assessment report of Betmiga): soluble
SMILES: Nc1nc(CC(=O)Nc2ccc(CCNC[C@H](O)c3ccccc3)cc2)cs1 [Mirabegron, (R)-2-(2-aminothiazol-4-yl)-4′-[2-[(2-hydroxy-2-phenylethyl)amino]ethyl]acetic acid anilide]
